± gives the standard deviation of the averaged measurements.
Columns and labels:
Test in all cases: relative viability vs DMSO control (72 h) (fraction); higher = more viable cells
[1] = test system: SW872
Outline: (§1)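 Sarcoma cell lines were seeded in 384-well plates at densities set to reach 80–90% confluence. After 24 h, 2.5 µl of serially diluted compound was added (source plates 10 mM to 0.0002 mM), and plates were held 72 h at 37 °C, 5% CO2, with 0.1% DMSO vehicle and a 5 µM positive control. Relative viability came from ATPLite readings as percent growth, averaged over up to triplicate wells. Data were rescaled so full viability equals 1 and none equals 0.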

[2] = test system: SW684
Outline: as §1

[3] = test system: SW982
Outline: as §1

[4] = test system: A204
Outline: as §1

[5] = test system: KHOS-NP
Outline: as §1

[6] = test system: RD-ES
Outline: as §1

[7] = test system: SK-LMS-1
Outline: as §1

[8] = test system: G401
Outline: as §1

[9] = test system: VA-ES-BJ
Outline: as §1

[10] = test system: SK-ES-1
Outline: as §1

[11] = test system: HS729
Outline: as §1

[12] = test system: HT1080
Outline: as §1

O=S(=O)(c1cccc2c(O)nccc12)N1CCCNCC1 [Hydroxyfasudil]
relative viability ([1]; 0.00017 µM): 1.12 ± 0.053
relative viability ([1]; 0.00051 µM): 1.11 ± 0.066
relative viability ([1]; 0.00152 µM): 1.09 ± 0.078
relative viability ([1]; 0.00457 µM): 1.1 ± 0.074
relative viability ([1]; 0.01372 µM): 1.07 ± 0.065
relative viability ([1]; 0.04115 µM): 1.11 ± 0.053
relative viability ([1]; 0.1235 µM): 1.07 ± 0.061
relative viability ([1]; 0.3704 µM): 1.07 ± 0.048
relative viability ([1]; 1.111 µM): 1.08 ± 0.045
relative viability ([1]; 3.333 µM): 1.03 ± 0.07
relative viability ([1]; 10 µM): 0.964 ± 0.042
relative viability ([2]; 0.00017 µM): 1.16 ± 0.084
relative viability ([2]; 0.00051 µM): 1.21 ± 0.013
relative viability ([2]; 0.00152 µM): 1.2 ± 0.044
relative viability ([2]; 0.00457 µM): 1.16 ± 0.06
relative viability ([2]; 0.01372 µM): 1.16 ± 0.1
relative viability ([2]; 0.04115 µM): 1.15 ± 0.12
relative viability ([2]; 0.1235 µM): 1.14 ± 0.091
relative viability ([2]; 0.3704 µM): 1.15 ± 0.081
relative viability ([2]; 1.111 µM): 1.12 ± 0.035
relative viability ([2]; 3.333 µM): 1.06 ± 0.04
relative viability ([2]; 10 µM): 1.02 ± 0.045
relative viability ([3]; 0.00017 µM): 1.02 ± 0.013
relative viability ([3]; 0.00051 µM): 1.05 ± 0.023
relative viability ([3]; 0.00152 µM): 1.05 ± 0.026
relative viability ([3]; 0.00457 µM): 1.081 ± 0.0036
relative viability ([3]; 0.01372 µM): 1.05 ± 0.019
relative viability ([3]; 0.04115 µM): 1.06 ± 0.021
relative viability ([3]; 0.1235 µM): 1.073 ± 0.0094
relative viability ([3]; 0.3704 µM): 1.06 ± 0.028
relative viability ([3]; 1.111 µM): 1.04 ± 0.03
relative viability ([3]; 3.333 µM): 1.041 ± 0.0072
relative viability ([3]; 10 µM): 0.92 ± 0.034
relative viability ([4]; 0.00017 µM): 1.08 ± 0.059
relative viability ([4]; 0.00051 µM): 1.1 ± 0.06
relative viability ([4]; 0.00152 µM): 1.12 ± 0.058
relative viability ([4]; 0.00457 µM): 1.1 ± 0.039
relative viability ([4]; 0.01372 µM): 1.11 ± 0.041
relative viability ([4]; 0.04115 µM): 1.11 ± 0.035
relative viability ([4]; 0.1235 µM): 1.11 ± 0.051
relative viability ([4]; 0.3704 µM): 1.06 ± 0.058
relative viability ([4]; 1.111 µM): 1.04 ± 0.02
relative viability ([4]; 3.333 µM): 1.05 ± 0.019
relative viability ([4]; 10 µM): 0.979 ± 0.055
relative viability ([5]; 0.00017 µM): 1.09 ± 0.019
relative viability ([5]; 0.00051 µM): 1.09 ± 0.032
relative viability ([5]; 0.00152 µM): 1.086 ± 0.0061
relative viability ([5]; 0.00457 µM): 1.1 ± 0.029
relative viability ([5]; 0.01372 µM): 1.09 ± 0.017
relative viability ([5]; 0.04115 µM): 1.1 ± 0.012
relative viability ([5]; 0.1235 µM): 1.08 ± 0.0015
relative viability ([5]; 0.3704 µM): 1.07 ± 0.016
relative viability ([5]; 1.111 µM): 1.07 ± 0.011
relative viability ([5]; 3.333 µM): 1.049 ± 0.005
relative viability ([5]; 10 µM): 1.04 ± 0.024
relative viability ([6]; 0.00017 µM): 0.996 ± 0.013
relative viability ([6]; 0.00051 µM): 1.02 ± 0.019
relative viability ([6]; 0.00152 µM): 1 ± 0.037
relative viability ([6]; 0.00457 µM): 1.01 ± 0.018
relative viability ([6]; 0.01372 µM): 1.01 ± 0.015
relative viability ([6]; 0.04115 µM): 1.011 ± 0.0071
relative viability ([6]; 0.1235 µM): 1.03 ± 0.035
relative viability ([6]; 0.3704 µM): 1.04 ± 0.027
relative viability ([6]; 1.111 µM): 1.03 ± 0.02
relative viability ([6]; 3.333 µM): 1.04 ± 0.031
relative viability ([6]; 10 µM): 1.06 ± 0.023
relative viability ([7]; 0.00017 µM): 1.01 ± 0.016
relative viability ([7]; 0.00051 µM): 1.06 ± 0.033
relative viability ([7]; 0.00152 µM): 1.01 ± 0.058
relative viability ([7]; 0.00457 µM): 1.06 ± 0.074
relative viability ([7]; 0.01372 µM): 1.04 ± 0.037
relative viability ([7]; 0.04115 µM): 1.06 ± 0.07
relative viability ([7]; 0.1235 µM): 0.983 ± 0.044
relative viability ([7]; 0.3704 µM): 0.99 ± 0.06
relative viability ([7]; 1.111 µM): 0.99 ± 0.048
relative viability ([7]; 3.333 µM): 0.987 ± 0.07
relative viability ([7]; 10 µM): 0.869 ± 0.054
relative viability ([8]; 0.00017 µM): 1.02 ± 0.013
relative viability ([8]; 0.00051 µM): 1.05 ± 0.015
relative viability ([8]; 0.00152 µM): 1.03 ± 0.02
relative viability ([8]; 0.00457 µM): 1.05 ± 0.0076
relative viability ([8]; 0.01372 µM): 1.052 ± 0.0026
relative viability ([8]; 0.04115 µM): 1.05 ± 0.028
relative viability ([8]; 0.1235 µM): 1.03 ± 0.015
relative viability ([8]; 0.3704 µM): 1.03 ± 0.028
relative viability ([8]; 1.111 µM): 1.038 ± 0.0053
relative viability ([8]; 3.333 µM): 1.01 ± 0.015
relative viability ([8]; 10 µM): 0.944 ± 0.047
relative viability ([9]; 0.00017 µM): 1.07 ± 0.04
relative viability ([9]; 0.00051 µM): 1.1 ± 0.016
relative viability ([9]; 0.00152 µM): 1.11 ± 0.018
relative viability ([9]; 0.00457 µM): 1.08 ± 0.059
relative viability ([9]; 0.01372 µM): 1.07 ± 0.027
relative viability ([9]; 0.04115 µM): 1.061 ± 0.0073
relative viability ([9]; 0.1235 µM): 1.06 ± 0.021
relative viability ([9]; 0.3704 µM): 1.09 ± 0.021
relative viability ([9]; 1.111 µM): 1.01 ± 0.029
relative viability ([9]; 3.333 µM): 1.01 ± 0.043
relative viability ([9]; 10 µM): 0.998 ± 0.02
relative viability ([10]; 0.00017 µM): 1.09 ± 0.062
relative viability ([10]; 0.00051 µM): 1.09 ± 0.034
relative viability ([10]; 0.00152 µM): 1.06 ± 0.014
relative viability ([10]; 0.00457 µM): 1.05 ± 0.046
relative viability ([10]; 0.01372 µM): 1.07 ± 0.033
relative viability ([10]; 0.04115 µM): 1.1 ± 0.023
relative viability ([10]; 0.1235 µM): 1.06 ± 0.048
relative viability ([10]; 0.3704 µM): 1.08 ± 0.044
relative viability ([10]; 1.111 µM): 1.07 ± 0.016
relative viability ([10]; 3.333 µM): 1.04 ± 0.057
relative viability ([10]; 10 µM): 1.02 ± 0.043
relative viability ([11]; 0.00017 µM): 1.087 ± 0.0065
relative viability ([11]; 0.00051 µM): 0.998 ± 0.086
relative viability ([11]; 0.00152 µM): 1.05 ± 0.032
relative viability ([11]; 0.00457 µM): 1.004 ± 0.0035
relative viability ([11]; 0.01372 µM): 0.967 ± 0.016
relative viability ([11]; 0.04115 µM): 0.969 ± 0.045
relative viability ([11]; 0.1235 µM): 0.97 ± 0.09
relative viability ([11]; 0.3704 µM): 0.962 ± 0.036
relative viability ([11]; 1.111 µM): 0.95 ± 0.022
relative viability ([11]; 3.333 µM): 0.887 ± 0.05
relative viability ([11]; 10 µM): 0.853 ± 0.036
relative viability ([12]; 0.00017 µM): 1.1 ± 0.025
relative viability ([12]; 0.00051 µM): 1.09 ± 0.053
relative viability ([12]; 0.00152 µM): 1.13 ± 0.014
relative viability ([12]; 0.00457 µM): 1.06 ± 0.07
relative viability ([12]; 0.01372 µM): 1.1 ± 0.029
relative viability ([12]; 0.04115 µM): 1.099 ± 0.0076
relative viability ([12]; 0.1235 µM): 1.102 ± 0.01
relative viability ([12]; 0.3704 µM): 1.1 ± 0.034
relative viability ([12]; 1.111 µM): 1.139 ± 0.0099
relative viability ([12]; 3.333 µM): 1.1 ± 0.034
relative viability ([12]; 10 µM): 1.1 ± 0.015

From the supplement of paper PMC10883282
